# Reference: US8309554B2 (priority 2008, dated 2012)
# pIC50: −log10 of the molar value. Like-named read-outs stand apart in the source and are kept apart here.
# Tests used:
# HT29 = experiment: cells; format: cell-based; settings: for pIC50: Homo sapiens, HT-29, 2 h
# H460 = experiment: cells; format: cell-based; settings: for pIC50: Homo sapiens, NCI-H460, 2 h
SMILES,HT29 HCR: Air/N2 (HT29),pIC50 (HT29; read-out: 2 hr Air HT29 IC50),pIC50 (HT29; read-out: 2 hr N2 HT29 IC50),H460 HCR: Air/N2 (H460),pIC50 (H460; read-out: 2 hr Air H460 IC50),pIC50 (H460; read-out: 2 hr N2 H460 IC50)
"O=[N+]([O-])c1sccc1C(CCS(=O)(=O)Oc1ccccc1)S(=O)(=O)Oc1ccc(N(CCCl)CCCl)cc1 (centres unmarked) [TH-1292, 3-(4-(N,N-bis-(2-Chloroethyl)amino)phenoxysulfonyl-(2-phenoxysulfonylethyl))methyl-2-nitrothiophene]",158,3.12,5.32,127.7,3.71,5.82
O=[N+]([O-])c1sccc1C(CCS(=O)(=O)N1CCOCC1)S(=O)(=O)Oc1ccc(N(CCCl)CCCl)cc1 (centres unmarked) [TH-1303],–,< 3.52,< 3.52,69,4.12,5.96
O=[N+]([O-])c1sccc1C(CNS(=O)(=O)c1ccc(F)cc1)S(=O)(=O)Oc1ccc(N(CCCl)CCCl)cc1 (centres unmarked) [TH-1311],–,< 3.52,< 3.52,143,4.24,6.40
CN(C)c1ccc(CC(c2ccsc2[N+](=O)[O-])S(=O)(=O)Oc2ccc(N(CCCl)CCCl)cc2)cn1 (centres unmarked) [TH-1316],–,< 3.52,< 3.52,179,3.75,6.00
O=[N+]([O-])c1sccc1C(Cc1ccc(OCCO)cc1)S(=O)(=O)Oc1ccc(N(CCCl)CCCl)cc1 (centres unmarked) [TH-1325],–,< 3.52,< 3.52,929,4.03,7.00
"CN1CCN(S(=O)(=O)CCC(c2ccsc2[N+](=O)[O-])S(=O)(=O)Oc2ccc(N(CCCl)CCCl)cc2)CC1 (centres unmarked) [TH-1326, 3-(4-(N,N-bis-(2-Chloroethyl)amino)phenoxysulfonyl-(2-((N-methylpiperazin-4-yl)sulfonyl)ethyl))methyl-2-nitrothiophene]",48,3.90,5.59,42,4.78,6.40
O=C1c2ccccc2C(=O)N1CC(c1ccsc1[N+](=O)[O-])S(=O)(=O)Oc1ccc(N(CCCl)CCCl)cc1 (centres unmarked) [TH-1327],–,< 3.00,< 3.00,178,3.97,6.22
CC(C)Nc1ccc(CC(c2ccsc2[N+](=O)[O-])S(=O)(=O)Oc2ccc(N(CCCl)CCCl)cc2)cn1 (centres unmarked) [TH-1328],3.3,3.82,4.34,187,3.58,5.85
"Nc1ccc(CC(c2ccsc2[N+](=O)[O-])S(=O)(=O)Oc2ccc(N(CCCl)CCCl)cc2)cc1.O=C(O)C(F)(F)F (centres unmarked) [TH-1330, 3-(4-(N,N-bis-(2-Chloroethyl)amino)phenoxysulfonyl-(4-aminophenylmethyl))methyl-2-nitrothiophene]",21,3.73,5.05,253,3.64,6.05
"O=[N+]([O-])c1sccc1C(Cn1nnc2ccccc21)S(=O)(=O)Oc1ccc(N(CCCl)CCCl)cc1 (centres unmarked) [TH-1343, 3-(4-(N,N-bis-(2-Chloroethyl)amino)phenoxysulfonyl-(benzotriazol-1-yl-methyl))methyl-2-nitrothiophene]",>4.2,< 3.00,4.62,133,4.03,6.15
CC(=O)Nc1ccc(CC(c2ccsc2[N+](=O)[O-])S(=O)(=O)Oc2ccc(N(CCCl)CCCl)cc2)cc1 (centres unmarked) [TH-1346],3.2,3.84,4.34,200,3.66,5.96
O=[N+]([O-])c1sccc1C(CCS(=O)(=O)N1CCC(O)CC1)S(=O)(=O)Oc1ccc(N(CCCl)CCCl)cc1 (centres unmarked) [TH-1347],20,3.40,4.70,76,3.87,5.74
O=[N+]([O-])c1sccc1C(Cc1ccccn1)S(=O)(=O)Oc1ccc(N(CCCl)CCCl)cc1 (centres unmarked) [TH-1357],>2,< 3.00,3.30,41,3.90,5.51
CN(C)S(=O)(=O)CCC(c1ccsc1[N+](=O)[O-])S(=O)(=O)Oc1ccc(N(CCCl)CCCl)cc1 (centres unmarked) [TH-1360],–,< 3.00,< 3.00,~70,~3.52,5.37
COc1ccc(CC(c2ccsc2[N+](=O)[O-])S(=O)(=O)Oc2ccc(N(CCCl)CCCl)cc2)c(OC)n1 (centres unmarked) [TH-1362],–,< 3.00,< 3.00,46,3.60,5.26
O=[N+]([O-])c1sccc1C(CCS(=O)(=O)c1ccncc1)S(=O)(=O)Oc1ccc(N(CCCl)CCCl)cc1 (centres unmarked) [TH-1363],–,< 3.00,< 3.00,113,4.17,6.22
CC(=O)Nc1ccncc1CC(c1ccsc1[N+](=O)[O-])S(=O)(=O)Oc1ccc(N(CCCl)CCCl)cc1 (centres unmarked) [TH-1364],27,3.46,4.89,36,4.19,5.74
Cn1ccnc1CC(c1ccsc1[N+](=O)[O-])S(=O)(=O)Oc1ccc(N(CCCl)CCCl)cc1 (centres unmarked) [TH-1366],14,3.74,4.89,40,4.70,6.30
O=[N+]([O-])c1sccc1C(CCS(=O)(=O)c1ccc(C(F)(F)F)cn1)S(=O)(=O)Oc1ccc(N(CCCl)CCCl)cc1 (centres unmarked) [TH-1369],–,< 3.00,< 3.00,131,3.63,5.74
Nc1ncccc1CC(c1ccsc1[N+](=O)[O-])S(=O)(=O)Oc1ccc(N(CCCl)CCCl)cc1.O=C(O)C(F)(F)F (centres unmarked) [TH-1374],23,3.20,4.55,73,3.84,5.70
CC(=O)Nc1ncccc1CC(c1ccsc1[N+](=O)[O-])S(=O)(=O)Oc1ccc(N(CCCl)CCCl)cc1 (centres unmarked) [TH-1375],16,3.55,4.77,93,4.55,6.52
CC(=O)Nc1cc(CC(c2ccsc2[N+](=O)[O-])S(=O)(=O)Oc2ccc(N(CCCl)CCCl)cc2)ccn1 (centres unmarked) [TH-1376],10,3.27,4.28,236,3.67,6.05
O=C(CO)Nc1ncccc1CC(c1ccsc1[N+](=O)[O-])S(=O)(=O)Oc1ccc(N(CCCl)CCCl)cc1 (centres unmarked) [TH-1384],16,3.56,4.77,30,4.19,5.68
O=[N+]([O-])c1sccc1C(CCS(=O)(=O)CCO)S(=O)(=O)Oc1ccc(N(CCCl)CCCl)cc1 (centres unmarked) [TH-1388],30,3.38,4.85,35,4.31,5.85
O=[N+]([O-])c1sccc1C(Cc1cnc(O)c(Cl)c1)S(=O)(=O)Oc1ccc(N(CCCl)CCCl)cc1 (centres unmarked) [TH-1393],–,3.15,3.96,89,3.82,5.77
